US9394549B2, “Method for producing useful chemical substance from terephthalic acid potassium salt” (GENARIS, INC., priority 2012, dated 2016)

Tests used:
[1] = Solubility of terephthalic acid salts in water; format: physicochemical
Description: 2.99 g (0.018 mol) of terephthalic acid (in a form of powder, manufactured by Sigma-Aldrich Japan; hereinafter, unless otherwise specified, reagents used were ones manufactured by Sigma-Aldrich Japan) and 0.036 mol of potassium hydroxide (in a form of granule) were put in a 50 mL-glass beaker. Distilled water was filled to obtain a volume of about 15 mL. The resulting mixture was covered with aluminum foil as a lid, heated at 50° C. for 60 minutes while stirred by a hot stirrer (manufactured by AS ONE Corporation), and allowed to cool to 30° C. After stirring at 30° C. for 120 minutes or more and confirming the precipitate remained in the solution, 1 mL of the solution was collected and subjected to centrifugation using a high speed micro centrifuge (manufactured by Tomy Seiko Co., Ltd.) (30° C., 14000 rpm (17800 g), 30 seconds) to collect the supernatant.
The concentration of terephthalic acid in this supernatant was measured and regarded as the solubility of dipotassium terephthalate. With regard to the measurement of the concentration of terephthalic acid, the sample was diluted 16,000-fold with 2.5% aqueous acetonitrile solution and analyzed in separation conditions of Table 1 using high performance liquid chromatography (Waters Corporation, LCT Premier XE). Thereafter, the concentration was calculated on the basis of a ratio of the area of terephthalic acid peaks using aqueous terephthalic acid solution with a known concentration as a control.

[2] = system: protocatechuic acid-producing Escherichia coli strain M7032 (pUXPEaLT_tphA2A3BA1_tpaK); experiment: Production of protocatechuic acid from terephthalic acid salt in jar fermentor culture; format: cell-based; conditions: for Ratio of the capacity in production (protocatechuic acid): disodium terephthalate as 100%
Description: A protocatechuic acid-producing plasmid pUXPEaLT_tphA2A3BA1_tpaK constructed in Reference Example 2 was introduced into Escherichia coli M7032 strain by a transformation method to obtain a protocatechuic acid-producing Escherichia coli strain M7032 (pUXPEaLT_tphA2A3BA1_tpaK).
Subsequently, in the same manner as described in Example 2, the preculture of the present protocatechuic acid-producing bacterium was prepared and then merely 2% of such a preculture was inoculated in a main culture medium to carry out main culture. When the bacterial cell turbidity reached about 7 at an absorbance of 600 nm, an inducer m-toluic acid was added such that the final concentration thereof came to 1 mM to express terephthalate 1,2-dioxygenase protein, terephthalate 1,2-dioxygenase reductase protein, terephthalate dihydrodiol dehydrogenase protein, and terephthalic acid transporter protein. The glucose concentration was measured with time. When the glucose concentration reached 0, the glucose and substrate mixed solution was administered.
(§1) Sampling was carried out 48 hours after the start of the main culture. Each of the samples was subjected to analysis by an LC-TOF type mass spectrometer (Waters Corporation, LCT Premier XE). Identification of terephthalic acid and protocatechuic acid was carried out with a combination of retention time of high performance liquid chromatography and an accurate mass value from the mass spectrometer, comparing to a standard sample of terephthalic acid and protocatechuic acid.
(§2) Using the protocatechuic acid-producing Escherichia coli strain M7032 (pUXPEaLT_tphA2A3BA1_tpaK) created in Reference Example 2, in the same manner as described in Example 2, the preculture of the present protocatechuic acid-producing bacteria was prepared and then merely 2% of such a preculture was inoculated in a main culture medium to carry out main culture. When the bacterial cell turbidity reached about 7 at an absorbance of 600 nm, an inducer m-toluic acid was added such that the final concentration thereof came to 1 mM to express terephthalate 1,2-dioxygenase protein, terephthalate 1,2-dioxygenase reductase protein, terephthalate dihydrodiol dehydrogenase protein, and terephthalic acid transporter protein. The glucose concentration was measured with time. When the glucose concentration reached 0, the terephthalic acid salt derived from PET, which was prepared in Example 6, was dissolved such that the concentration thereof was 0.6M, mixed with glucose, and administered to a culture device.
as §1, with “52” for “48”
as §2, with “acid-producing bacterium” for “acid-producing bacteria”, “time. […]” for “time. When the glucose concentration reached 0, the terephthalic acid salt derived from PET, which was prepared in Example 6, was dissolved such that the concentration thereof was 0.6M, mixed with glucose, and administered to a culture device.”

[3] = Solubility of terephthalic acid salts in ethylene glycol; format: physicochemical; conditions: for concentration of terephthalate in saturated ethylene glycol solvent: heated at 100° C. for 60 minutes, cooled to 30° C. or less, filtered; for solubility: organic solvent or mixture, same method as Example 1
Description: 4.15 g of terephthalic acid (0.025 mol) was placed in a 200 mL glass beaker and then 0.050 mol of potassium hydroxide (in a form of granule), 0.050 mol of sodium hydroxide (in a form of granule), or 0.025 mol of potassium hydroxide, and 0.025 mol of sodium hydroxide were placed thereto. Ethylene glycol was filled to obtain a volume of about 100 mL. The resulting mixture was covered with aluminum foil as a lid, heated at 100° C. for 60 minutes while stirred by a hot stirrer, and allowed to cool to 30° C. or less. These solutions were filtered with a filter paper (Grade 540 manufactured by Whatman) to obtain an ethylene glycol solvent saturated with the terephthalate.
The concentration of each of the terephthalates contained in such a solvent was 0.23 M in a dipotassium terephthalate saturated solution, 0.11 M in a disodium terephthalate saturated solution, and 0.20 M in a 1-potassium 4-sodium terephthalate saturated solution.

[4] = 30 °C, water, thermodynamic from solid, in water at 30° C., rounded values of the summary, read-out: solubility in water at 30° C.
[5] = 30 °C, water, thermodynamic from solid, in water, 30° C., read-out: Solubility
[6] = 0.6 M salt solution as raw material, 48 hours after the start of the main culture
[7] = salt obtained by depolymerization of PBT (Example 8), 0.6M, 48 hours
[8] = salt obtained by depolymerization of PET (Example 6), 0.6M, 52 hours

Structure (SMILES): O=C([O-])c1ccc(C(=O)[O-])cc1.[Na+].[Na+] [Disodium terephthalate, disodium terephthalate, reference compound]
- solubility [1, 4]: ~630 mM
- solubility [1, 5]: 630 mM
- Protocatechuic acid [2, 6]: 5.0 g/L
- Ratio of the capacity in production (protocatechuic acid) ([2]; 48 hours): 100%
- Ratio of the capacity in production (protocatechuic acid) ([2]; salt from PBT, 48 hours): 100%
- Ratio of the capacity in production (protocatechuic acid) ([2]; salt from PET, 52 hours): 100%
- Protocatechuic acid [2, 7]: 10.2 g/L
- Protocatechuic acid [2, 8]: 10.2 g/L
- concentration of terephthalate in saturated ethylene glycol solvent [3]: 0.11 M
- solubility [3]: 109 mM

Structure (SMILES): O=C([O-])c1ccc(C(=O)[O-])cc1.[K+].[K+] [Dipotassium terephthalate, dipotassium terephthalate]
- solubility [1, 4]: ~1000 mM
- solubility [1, 5]: 1010 mM
- Protocatechuic acid [2, 6]: 8.3 g/L
- Ratio of the capacity in production (protocatechuic acid) ([2]; 48 hours): 166%
- Ratio of the capacity in production (protocatechuic acid) ([2]; salt from PBT, 48 hours): 114%
- Ratio of the capacity in production (protocatechuic acid) ([2]; salt from PET, 52 hours): 113%
- Protocatechuic acid [2, 7]: 11.6 g/L
- Protocatechuic acid [2, 8]: 11.5 g/L
- concentration of terephthalate in saturated ethylene glycol solvent [3]: 0.23 M
- solubility [3]: 231 mM

Structure (SMILES): O=C([O-])c1ccc(C(=O)[O-])cc1.[K+].[Na+] [1-potassium 4-sodium terephthalate]
- solubility [1]: 956 mM
- solubility in water at 30° C. [1]: about 0.96 M
- Protocatechuic acid [2, 6]: 7.7 g/L
- Ratio of the capacity in production (protocatechuic acid) ([2]; 48 hours): 154%
- Ratio of the capacity in production (protocatechuic acid) ([2]; salt from PBT, 48 hours): 108%
- Ratio of the capacity in production (protocatechuic acid) ([2]; salt from PET, 52 hours): 108%
- Protocatechuic acid [2, 7]: 11.0 g/L
- Protocatechuic acid [2, 8]: 11.1 g/L
- solubility in ethylene glycol [3]: 205 mM

Structure (SMILES): N.O=C([O-])c1ccc(C(=O)O)cc1.[K+] [1-potassium 4-ammonium terephthalate]
- solubility [1]: 845 mM
- solubility in water at 30° C. [1]: about 0.85 M
- Protocatechuic acid [2, 6]: 7.1 g/L
- Ratio of the capacity in production (protocatechuic acid) ([2]; 48 hours): 142%
